For orientation: IC50 means the midpoint of a concentration-inhibition curve.

Among the data in patent US8372991B2, “Trisubstituted thiophenes that modulate intracellular calcium” (Calcimedica, Inc., priority 2008, dated 2013) are IC50 values, retold here.

The assay has as its system JR251 or RBL cells. Briefly: Store-operated calcium entry IC50 in either JR251 or RBL cells. The assay is classed as cell-based. The procedure:
The day prior to performing the assay Orai1/STIM1 stable cells were plated in 50 μL of complete medium at 90-95% confluence in a 384 well plate. Cells were grown at 37° C./6% CO2 overnight. On the day of the assay, 1.5 μM fluo-4-AM (Invitrogen) in complete medium was added to the cells, which were then incubated for 1 hour at RT. Cells were washed once in Ca^2+-free HBSS (Hank's buffered saline solution) and 35 μl of Ca^2+-free HBSS was added to each well. Test compounds were added to wells in a 10 μL Ca^2+-free HBSS solution, prepared at 4.5× the desired final concentration, and incubated for 30 minutes at RT. The initial baseline fluorescence signal was then measured with a FLIPR^384 (Molecular Devices) plate reader. Calcium entry was initiated by adding 5 μl of 10× CaCl2 (10 mM) in HBSS, and changes in cellular fluorescence were measured with the FLIPR^384 plate reader. In each well, the magnitude of the fluorescence signal as a result of calcium entry into the cell was determined by calculating the difference between the peak fluorescence signal measured after calcium addition and the initial baseline fluorescence signal (designated Peak-Basal). IC50 values were typically calculated as the concentration that inhibited 50% of the Peak-Basal signal (Table A).
The day prior to performing the assay, RBL-2H3 cells are plated in 50 μL of complete medium in a 384 well plate. Cells are grown at 37° C./6% CO2 overnight and grow to 50-60% confluence by the next day. On the assay day, 1.5 μM Fluo-4-AM dye (Invitrogen) in complete medium is added and incubated for 1 hour at RT. Cells are washed twice in Ca^2+-free HBSS buffer and 35 μL Ca^2+-free HBSS buffer is added to each well. 10 μL of a test compound prepared in a Ca^2+-free HBSS solution at 4.5× of the desired concentration is added to a well and incubated for 5 minutes at RT. 10 μL of thapsigargin prepared in a Ca^2+-free HBSS solution at 5.5× of the desired concentration (5.5 uM) is added to each well and incubated for an additional 25 minutes. The initial baseline fluorescence signal is measured with a FLIPR^384 (Molecular Devices) plate reader. 5 μL of 12× calcium in HBSS (12 mM) is added and changes in cellular fluorescence are measured with the FLIPR^384 plate reader. In each well, the change in the fluorescent signal as a function of time due to calcium entry into the cell is determined by calculating the difference between the fluorescent signal measured 7 seconds after calcium addition and the initial baseline fluorescence signal at time zero (t=0). This parameter is designated Upslope. The IC50 value is calculated as the concentration at which 50% of the Upslope is inhibited.

With `O=C(Nc1scc(-c2c[nH]c3ccccc23)c1C(=O)O)c1cccc(F)c1` [2-(3-fluorobenzamido)-4-(1H-indol-3-yl)thiophene-3-carboxylic acid], the IC50 is less than 10 µM.
For the compound `Cc1nc(N2CCCCC2)ncc1-c1csc(NC(=O)c2cccc(F)c2)c1C(=O)O` [2-(3-fluorobenzamido)-4-(4-methyl-2-(piperidin-1-yl)pyrimidin-5-yl)thiophene-3-carboxylic acid], the IC50 is less than 10 µM.
With `Cc1csc(-c2csc(NC(=O)c3cccc(F)c3)c2C(=O)O)n1` [2-(3-fluorobenzamido)-4-(4-methylthiazol-2-yl)thiophene-3-carboxylic acid], the IC50 is less than 10 µM.
Next, `COc1ccc(-c2csc(NC(=O)c3cccc(F)c3)c2C(=O)O)cn1` [2-(3-fluorobenzamido)-4-(6-methoxypyridin-3-yl)thiophene-3-carboxylic acid]: less than 10 µM.
Next, `O=C(Nc1scc(-c2cnccn2)c1C(=O)O)c1cccc(F)c1` [2-(3-fluorobenzamido)-4-(pyrazin-2-yl)thiophene-3-carboxylic acid]: less than 10 µM; `O=C(Nc1scc(-c2ncco2)c1C(=O)O)c1ccc(F)cc1` [2-(4-fluorobenzamido)-4-(oxazol-2-yl)thiophene-3-carboxylic acid]: less than 10 µM; `Cc1nc(N2CCCCC2)ncc1-c1csc(NC(=O)c2snnc2C)c1C(=O)O` [2-(4-methyl-1,2,3-thiadiazole-5-carboxamido)-4-(4-methyl-2-(piperidin-1-yl)pyrimidin-5-yl)thiophene-3-carboxylic acid]: less than 10 µM.
Next, `Cc1nnsc1C(=O)Nc1scc(-c2cnccn2)c1C(=O)O` [2-(4-methyl-1,2,3-thiadiazole-5-carboxamido)-4-(pyrazin-2-yl)thiophene-3-carboxylic acid]: less than 10 µM.
On to `Cc1cc(-c2csc(NC(=O)c3cnn(C)c3Cl)c2C(=O)O)n(C)n1` [2-(5-chloro-1-methyl-1H-pyrazole-4-carboxamido)-4-(1,3-dimethyl-1H-pyrazol-5-yl)thiophene-3-carboxylic acid], for which the IC50 is less than 10 µM.
In the case of `Cn1ncc(C(=O)Nc2scc(-c3cnn(-c4ccc(Cl)cc4)c3)c2C(=O)O)c1Cl` [2-(5-chloro-1-methyl-1H-pyrazole-4-carboxamido)-4-(1-(4-chlorophenyl)-1H-pyrazol-4-yl)thiophene-3-carboxylic acid], the IC50 was less than 10 µM.
Next, `Cc1nc(N2CCCCC2)ncc1-c1csc(NC(=O)c2cnn(C)c2Cl)c1C(=O)O` [2-(5-chloro-1-methyl-1H-pyrazole-4-carboxamido)-4-(4-methyl-2-(piperidin-1-yl)pyrimidin-5-yl)thiophene-3-carboxylic acid]: less than 10 µM.
For the compound `Cc1ccc(-c2csc(NC(=O)c3nc4ccccc4o3)c2C(=O)O)c2ccccc12` [2-(benzo[d]oxazole-2-carboxamido)-4-(4-methylnaphthalen-1-yl)thiophene-3-carboxylic acid], the 50% inhibitory concentration (IC50) is less than 10 µM.
As for `O=C(Nc1scc(-c2ccc3ccccc3c2)c1C(=O)O)c1nc2ccccc2o1` [2-(benzo[d]oxazole-2-carboxamido)-4-(naphthalen-2-yl)thiophene-3-carboxylic acid], the figure is less than 10 µM; as for `O=C(Nc1scc(-c2nc3ccccc3n2C(F)F)c1C(=O)O)c1cc2ccccc2o1` [2-(benzofuran-2-carboxamido)-4-(1-(difluoromethyl)-1H-benzo[d]imidazol-2-yl)thiophene-3-carboxylic acid], less than 10 µM; as for `Cn1ccc2cc(-c3csc(NC(=O)c4cc5ccccc5o4)c3C(=O)O)ccc21` [2-(benzofuran-2-carboxamido)-4-(1-methyl-1H-indol-5-yl)thiophene-3-carboxylic acid], less than 10 µM.
As for `Cn1nc(C(F)(F)F)cc1-c1csc(NC(=O)c2cc3ccccc3o2)c1C(=O)O` [2-(benzofuran-2-carboxamido)-4-(1-methyl-3-(trifluoromethyl)-1H-pyrazol-5-yl)thiophene-3-carboxylic acid], the IC50 is less than 10 µM.
With `O=C(Nc1scc(-c2c[nH]c3ccccc23)c1C(=O)O)c1cc2ccccc2o1` [2-(benzofuran-2-carboxamido)-4-(1H-indol-3-yl)thiophene-3-carboxylic acid], the IC50 was less than 10 µM.
For the compound `O=C(Nc1scc(-c2cnc3[nH]ccc3c2)c1C(=O)O)c1cc2ccccc2o1` [2-(benzofuran-2-carboxamido)-4-(1H-pyrrolo[2,3-b]pyridin-5-yl)thiophene-3-carboxylic acid], the half-maximal inhibitory concentration (IC50) was less than 10 µM.
As to `Cc1nc(C)c(-c2csc(NC(=O)c3cc4ccccc4o3)c2C(=O)O)s1` [2-(benzofuran-2-carboxamido)-4-(2,4-dimethylthiazol-5-yl)thiophene-3-carboxylic acid], the concentration for half-maximal inhibition (IC50) is less than 10 µM.
Next, `O=C(Nc1scc(-c2ccc(F)nc2F)c1C(=O)O)c1cc2ccccc2o1` [2-(benzofuran-2-carboxamido)-4-(2,6-difluoropyridin-3-yl)thiophene-3-carboxylic acid]: less than 10 µM; `O=C(Nc1scc(-c2cnc(C(F)(F)F)nc2)c1C(=O)O)c1cc2ccccc2o1` [2-(benzofuran-2-carboxamido)-4-(2-(trifluoromethyl)pyrimidin-5-yl)thiophene-3-carboxylic acid]: less than 10 µM.
Next, `O=C(Nc1scc(-c2ccnc(F)c2)c1C(=O)O)c1cc2ccccc2o1` [2-(benzofuran-2-carboxamido)-4-(2-fluoropyridin-4-yl)thiophene-3-carboxylic acid]: less than 10 µM.
As to `Cc1ccc(-c2csc(NC(=O)c3cc4ccccc4o3)c2C(=O)O)c2ccccc12` [2-(benzofuran-2-carboxamido)-4-(4-methylnaphthalen-1-yl)thiophene-3-carboxylic acid], the 50% inhibitory concentration (IC50) is less than 10 µM.
Next, `Cc1csc(-c2csc(NC(=O)c3cc4ccccc4o3)c2C(=O)O)n1` [2-(benzofuran-2-carboxamido)-4-(4-methylthiazol-2-yl)thiophene-3-carboxylic acid]: less than 10 µM; `CCOc1ccc(-c2csc(NC(=O)c3cc4ccccc4o3)c2C(=O)O)cn1` [2-(benzofuran-2-carboxamido)-4-(6-ethoxypyridin-3-yl)thiophene-3-carboxylic acid]: less than 10 µM.
`O=C(Nc1scc(-c2ccc(F)nc2)c1C(=O)O)c1cc2ccccc2o1` [2-(benzofuran-2-carboxamido)-4-(6-fluoropyridin-3-yl)thiophene-3-carboxylic acid]: the half-maximal inhibitory concentration (IC50) is less than 10 µM.
As for `COc1ccc(-c2csc(NC(=O)c3cc4ccccc4o3)c2C(=O)O)cn1` [2-(benzofuran-2-carboxamido)-4-(6-methoxypyridin-3-yl)thiophene-3-carboxylic acid], the figure is less than 10 µM.
Turning to `Cc1ccc(-c2csc(NC(=O)c3cc4ccccc4o3)c2C(=O)O)cn1` [2-(benzofuran-2-carboxamido)-4-(6-methylpyridin-3-yl)thiophene-3-carboxylic acid], the IC50 is less than 10 µM.
With `COc1cccc2cc(-c3csc(NC(=O)c4cc5ccccc5o4)c3C(=O)O)[nH]c12` [2-(benzofuran-2-carboxamido)-4-(7-methoxy-1H-indol-2-yl)thiophene-3-carboxylic acid], the concentration for half-maximal inhibition (IC50) is less than 10 µM.
On to `Cc1ccc(-c2csc(NC(=O)c3cc4ccccc4o3)c2C(=O)O)c2cccnc12` [2-(benzofuran-2-carboxamido)-4-(8-methylquinolin-5-yl)thiophene-3-carboxylic acid], for which the half-inhibitory concentration (IC50) is less than 10 µM.
